These results are taken from patent US5846939A, “Use of a decapeptide with benzodiazepine-type activity for preparing medicines and food supplements” (Societe Cooperative Agricole Laitiere D'Artois Et Des …, priority 1994, dated 1998).

As a reminder, the Ki is the dissociation constant of the complex between target and ligand, obtained from inhibition or displacement.

Test [1] deals with central benzodiazepine receptor. The note with it: radioligand of the kit; cited from earlier work.
The test system of test [2] is anxiety in the rat (elevated plus-maze). Kind of test: Tranquilizing activity, elevated plus-maze test. The class given is in vivo. The conditions noted are these: intraperitoneal, diazepam 2 mg/kg, hydrolysate 3 mg/kg. The text has this: To measure anxiety in the rat, the elevated plus-maze test described by Pellow et al. (14) was used which is based on neophobia in the rat. The plus-maze had four branches that were 50 cm long and 10 cm wide. The two closed branches were surrounded by walls that were 25 cm high (the top being left open for observation) and the entire maze was 50 cm above the ground. The center of the maze communicated with the two open arms and the two closed arms.
The number of times the animal enters the open arms, the closed arms, and the total number of times the rat enters the arms are important parameters. The time passed in each type of branch was also measured. Other parameters (a total of 22) such as the number of times the rat stood up, the number of times it groomed itself (signs of anxiety), or latency of first entry into an open or closed branch were taken into account. […] Its entire behavior was filmed by video camera, which procedure served to avoid errors.
The control group (CTR) received an intraperitoneal injection of solvent only, which solvent was a mixture of gelatin and mannitol (0.5%/5%) dissolved in water. […] The animals in all of the groups were injected half an hour before going to the plus-maze. To begin the experiments, each rat was placed in the center of the apparatus.

Regarding `CN1C(=O)CN=C(c2ccccc2F)c2cc([N+](=O)[O-])ccc21` [^3 H-methyl-flunitrazepam], the Ki in test [1] was 1.2 nM.
Regarding `CN1C(=O)CN=C(c2ccccc2)c2cc(Cl)ccc21` [diazepam], the “number of entries into closed branches” value in test [2] was “did not vary significantly”. In addition, the “number of entries into open branches” value in test [2] (control 1.5±0.3) was found to be 3.0±0.4. Further, the “time spent in the open branches” value in test [2] (control 19.3±4.4 s) is 70.1 ± 19.9 s.
